From patent publication US20140350285A1, “NOVEL POLYMORPHS OF N-[2-AMINO-4-(4-FLUOROBENZYLAMINO)-PHENYL] CARBAMIC ACID ETHYL ESTER AND PROCESSES THEREOF” (SYMED LABS LIMITED, priority 2012, published 2014)
Values after ≈ are worked out from the molar mass of the structure shown.

Key:
[1] = Polymorphic stability on storage, analysed by XRPD; assay type: physicochemical; conditions: stored at 25° C.±2° C., about 70% RH (result sentence: about 76% RH), 6 weeks
[2] = Chemical and polymorphic stability under stability testing conditions; assay type: physicochemical; conditions: 25±2° C. and 75% RH, inert atmosphere
[3] = Comparative solubility profile of crystalline forms in diluents
[4] = diluent: Solvent Methylene chloride

| Compound | Polymorphic stability (XRPD) [1] | Chemical and polymorphic stability [2] | Solubility profile compared to known polymorphs (crystalline modifications A, B, and C) [3] | Solubility ([3]; diluent: Solvent Acetone) [mg/mL] | Solubility ([3]; diluent: Solvent Alcohol (96%)) [mg/mL] | Solubility ([3]; diluent: Solvent DMSO) [mg/mL] | Solubility [3, 4] [mg/mL] | Solubility ([3]; diluent: Water) [mg/mL] | Solubility ([3]; diluent: pH Buffer 1.2 pH) [mg/mL] | Solubility ([3]; diluent: pH Buffer 4.5 pH) [mg/mL] | Solubility ([3]; diluent: pH Buffer 8.5 pH) [mg/mL] | Solubility ([3]; DMSO, organic solvent or mixture, Solubility, diluent: Solvent DMSO) [mg/mL] | Solubility ([3]; acetone, organic solvent or mixture, Solubility, diluent: Solvent Acetone) [mg/mL] | Solubility ([3]; alcohol (96%), organic solvent or mixture, Solubility, diluent: Solvent Alcohol (96%)) [mg/mL] | Solubility ([3]; methylene chloride, organic solvent or mixture, Solubility, diluent: Solvent Methylene chloride) [mg/mL] | Solubility ([3]; pH buffer, pH 1.2, simulated gastric fluid, Solubility, diluent: pH Buffer 1.2 pH) [mg/mL] | Solubility ([3]; pH buffer, pH 4.5, aqueous buffer, Solubility, diluent: pH Buffer 4.5 pH) [mg/mL] | Solubility ([3]; pH buffer, pH 8.5, aqueous buffer, Solubility, diluent: pH Buffer 8.5 pH) [mg/mL] | Solubility ([3]; water, Solubility, diluent: Water) [mg/mL] |
| --- | --- | --- | --- | --- | --- | --- | --- | --- | --- | --- | --- | --- | --- | --- | --- | --- | --- | --- | --- |
| CCOC(=O)Nc1ccc(NCc2ccc(F)cc2)cc1N [Form-I, N-[2-amino-4-(4-fluorobenzylamino)-phenyl]carbamic acid ethyl ester] | polymorphically stable | substantially stable chemically and polymorphically | better solubility profile | 290 (≈ 956 mM) | 25 (≈ 82.4 mM) | 700 (≈ 2310 mM) | 40 (≈ 132 mM) | <0.1 | 10 (≈ 33 mM) | <0.1 | <0.1 |  |  |  |  |  |  |  |  |
| CCOC(=O)Nc1ccc(NCc2ccc(F)cc2)cc1N [Modification-A, N-[2-amino-4-(4-fluorobenzylamino)-phenyl]carbamic acid ethyl ester] |  |  |  | 280 (≈ 923 mM) | 23 (≈ 75.8 mM) | 800 (≈ 2640 mM) | 50 (≈ 165 mM) | <0.1 | 13 (≈ 42.9 mM) | <0.1 | <0.1 |  |  |  |  |  |  |  |  |
| CCOC(=O)Nc1ccc(NCc2ccc(F)cc2)cc1N [Form-II, N-[2-amino-4-(4-fluorobenzylamino)-phenyl]carbamic acid ethyl ester] | polymorphically stable | substantially stable chemically and polymorphically | better solubility profile | 250 (≈ 824 mM) | 24 (≈ 79.1 mM) | 700 (≈ 2310 mM) | 70 (≈ 231 mM) | <0.1 | 10 (≈ 33 mM) | <0.1 | <0.1 |  |  |  |  |  |  |  |  |
| CCOC(=O)Nc1ccc(NCc2ccc(F)cc2)cc1N [Modification-B, N-[2-amino-4-(4-fluorobenzylamino)-phenyl]carbamic acid ethyl ester] |  |  |  | 280 (≈ 923 mM) | 22 (≈ 72.5 mM) | 700 (≈ 2310 mM) | 80 (≈ 264 mM) | <0.1 | 10 (≈ 33 mM) | <0.1 | <0.1 |  |  |  |  |  |  |  |  |
| CCOC(=O)Nc1ccc(NCc2ccc(F)cc2)cc1N [Modification-C, N-[2-amino-4-(4-fluorobenzylamino)-phenyl]carbamic acid ethyl ester] |  |  |  |  |  |  |  |  |  |  |  | 700 (≈ 2310 mM) | 310 (≈ 1020 mM) | 16 (≈ 52.7 mM) | 50 (≈ 165 mM) | 11 (≈ 36.3 mM) | < 0.1 | < 0.1 | < 0.1 |
